Experimental data reported in patent US20060270677A1, “Method for the treatment of noise phobia in companion animals” (Wyeth, priority 2005, published 2006).

Test: in vivo
Details: male, Beagle, dog, po
From the text: In this evaluation 8 male Beagle breed dogs, 6 months to 2 years of age, and at least 10 kg in weight were used. Dogs were housed in individual indoor cages in compliance with standards outlined in the Guide for the Care and Use of Laboratory Animals of the Institute of Laboratory Animal resources, National Research Council. The dogs were fed an appropriate amount of standard commercial dry ration once per day. Fresh tap water in water bowls was provided ad libitum. On the day before the test compounds were administered, food was removed from the dogs by 4:00 pm. Food was withheld until after taking blood samples at the 4 h time point after administration of test materials. Dogs were weighed and ranked by descending weight order and were given physical exams by a veterinarian. The two heaviest dogs were randomly assigned to Group 1 or 2. The second two heaviest dogs were randomly assigned to Group 1 or 2 and so on, until all 8 dogs were placed into either of the two groups. Group 1 with 4 dogs/group, was treated orally with 15 mg/kg of the acetamide test compound and Group 2 was treated orally with 15 mg/kg of the carbonitrile test compound. One week after treatment all dogs were reweighed to ensure correct dosing. Two weeks after treatment, Group 1 was treated orally with 30 mg/kg of the acetamide test compound and Group 2 was treated orally with 30 mg/kg of the carbonitrile test compound. A treatment vial containing an appropriate amount of test compound was provided for each dog. The appropriate amount of vehicle (water containing 0.5% Methocel A4M and 0.01% polysorbate 80) was added to the vial and the contents of the vial were thoroughly mixed. The resultant suspension was withdrawn with an unarmed disposable 12 ml plastic syringe and administered to the dog. Test suspensions were administered to the back of the throat to ensure that they were reliably and completely swallowed by the dog. The vials were rinsed with 0.5 ml vehicle per kg of body weight and the rinsate was administered to the dog. Blood samples were collected at regular time intervals and analyzed for concentration of test compound. The Cmax value (the maximum compound concentration in the plasma) and the Tmax value (the time, after dosing, at which the peak compound concentration was obtained) were determined by observation. For Table I, the term “Acetamide” designates N-methyl-N-[3-(3-methyl-1,2,4-triazolo-[4,3-b]pyridazin-6-yl)phenyl]acetamide; and the term “Carbonitrile” designates 7-(3-pyridyl)pyrazolo[1,5-a]pyrimidine-3-carbonitrile.

Cmax (15 mg/kg): 3700 ng/mL
Tmax (15 mg/kg): 4.25 h
Cmax (30 mg/kg): 6390 ng/mL
Tmax (30 mg/kg): 8.25 h
Compound: N#Cc1cnn2c(-c3cccnc3)ccnc12 [Carbonitrile, 7-(3-pyridyl)pyrazolo[1,5-a]pyrimidine-3-carbonitrile]
